Where two headings read alike, the source gives them in different places.
How the values were obtained:
[1] = human, in vivo
[2] = in vivo interaction with buprenorphine; cited from earlier work
[3] = with lopinavir/ritonavir; cited from earlier work

| SMILES | Effect on pharmacokinetics / metabolism of buprenorphine [2] | further results |
| --- | --- | --- |
| CO[C@]12CC[C@@]3(C[C@@H]1[C@](C)(O)C(C)(C)C)[C@H]1Cc4ccc(O[C@@H]5O[C@H](C(=O)O)[C@@H](O)[C@H](O)[C@H]5O)c5c4[C@@]3(CCN1CC1CC1)[C@H]2O5 [B3G, buprenorphine-3-glucuronide] | – | Change in renal clearance [1]: No significant changes |
| CC(C)Nc1cccnc1N1CCN(C(=O)c2cc3cc(NS(C)(=O)=O)ccc3[nH]2)CC1 [delavirdine] | inhibition of buprenorphine metabolism | – |
| O=C1Nc2ccc(Cl)cc2[C@@](C#CC2CC2)(C(F)(F)F)O1 [efavirenz] | induction | – |
| Cc1c(O)cccc1C(=O)N[C@@H](CSc1ccccc1)[C@H](O)CN1C[C@H]2CCCC[C@H]2C[C@H]1C(=O)NC(C)(C)C [nelfinavir] | neither nelfinavir nor the combination of lopinavir/ritonavir had any significant effect | – |
| CC(C)c1nc(CN(C)C(=O)N[C@H](C(=O)N[C@@H](Cc2ccccc2)C[C@H](O)[C@H](Cc2ccccc2)NC(=O)OCc2cncs2)C(C)C)cs1 [ritonavir] | increased exposure to buprenorphine | – |
| C[C@H](Cn1cnc2c(N)ncnc21)OCP(=O)(O)O [tenofovir] | – | Change in renal clearance [3]: decrease |

Source: paper PMC3723409 (Basic & clinical pharmacology & toxicology, 2009)
